The text below walks through data of ChEMBL document CHEMBL1130353, “Conformational studies of paclitaxel analogs modified at the C-2' position in hydrophobic and hydrophilic solvent systems” (J Med Chem, 1997).

Holding throughout (type): functional, cell-based
One assay concerns EMT6. The assay can be described thus: Inhibitory activity of compound against murine mammary adenocarcinoma (EMT-6) cell proliferation. The following applies: Mus musculus.
A further assay has as its system J774. As to the kind of experiment: Inhibitory activity of compound against murine macrophage-like (J774.2) cell proliferation. Conditions: Mus musculus.
The test system of another assay is OV-1063. The assay can be described thus: Inhibitory activity of compound against human ovarian carcinoma (OV-1063) Cell proliferation.

In the case of `CC(=O)O[C@H]1C(=O)[C@@]2(C)C([C@H](OC(=O)c3ccccc3)[C@]3(O)C[C@H](OC(=O)C[C@@H](NC(=O)c4ccccc4)c4ccccc4)C(C)=C1C3(C)C)[C@]1(OC(C)=O)COC1C[C@@H]2O` (some centres undefined), the IC50 in the assay on EMT6 worked out at 300 nM; with J774 it was 400 nM; in the assay on OV-1063 it was 450 nM.

Regarding `CO[C@@H](C(=O)O[C@H]1C[C@@]2(O)[C@@H](OC(=O)c3ccccc3)C3[C@]4(OC(C)=O)COC4C[C@H](O)[C@@]3(C)C(=O)[C@H](OC(C)=O)C(=C1C)C2(C)C)[C@@H](NC(=O)c1ccccc1)c1ccccc1` (some centres undefined), the half-inhibitory concentration (IC50) was 270 nM in the assay with EMT6, 470 nM in the assay on J774 and 270 nM in the assay with OV-1063.

For `CC(=O)O[C@H]1C(=O)[C@@]2(C)[C@H]([C@H](OC(=O)c3ccccc3)[C@]3(O)C[C@H](OC(=O)[C@H](O)[C@@H](NC(=O)c4ccccc4)c4ccccc4)C(C)=C1C3(C)C)[C@]1(OC(C)=O)CO[C@@H]1C[C@@H]2O` [PACLITAXEL], the IC50 is 9 nM in the assay with EMT6, 15 nM in the assay on J774 and 15 nM with OV-1063.

What is called IC50 is the concentration needed to halve the response being measured.
